Source: patent publication US11459586B2, “Methods for increasing efficiency of nuclease-mediated gene editing in stem cells” (President and Fellows of Harvard College, priority 2016, dated 2022)

System: human iPSC
Assay: gene targeting (mThy1, mCD147) in hiPSC transiently transfected with Cas9-IRES-anti-apoptotic gene plasmids
Type: cell-based
Description: FIGS. 4A-D. Bcl-2 overexpression increases HR-mediated gene targeting in human iPSC when transiently transfected with the Cas9 nuclease. FIG. 4A. Mouse Thy1 gene targeting scheme. FIG. 4B. Plasmids were constructed to constitutively express Cas9 together with an anti-apoptotic gene (separated by an IRES) under the constitutively active EF1α promoter. Plain human iPSC were nucleofected with 0.5 μg of one of these Cas9 plasmids together with 2 μg of the mThy1 targeting vector and 1.5 μg of plasmids expressing the Thy1 Left, Right, both, or no sgRNAs (pUC19). Five days later, cells were analyzed by flow cytometry. FIG. 4C. Flow cytometry staining for mThy1 and hThy1 for the Cas9 only sample gated on live single cells; the percent of cells in each quadrant is indicated. […] FIG. 4D. Compiled gene editing frequencies. The percent of mThy1^+hThy1^− (bottom portion of each bar in the left, center, and right grafts), mThy1^+hThy1^+ (top portion of bars in the left and center graphs), and mThy1^−hThy1^− (top portion of bars in the right graph) cells is graphed for each indicated sample. Lines mark the percentages for the Cas9 only sample. Results are representative of two independent experiments.
FIGS. 8A-F. Wild type Bcl-2 improves gene targeting at various genomic loci across multiple hiPSC lines. FIG. 8A. Plasmids were constructed to constitutively express the Cas9 nuclease with a form of Bcl-2 (separated by an IRES), and a sgRNA. Three human iPSC lines were nucleofected with 2 μg of mThy1 or mCD147 targeting vector and 2 μg of “Cas9 sgRNA” or “Cas9 Bcl-2 sgRNA” expression plasmid. 5-9 days later, cells were analyzed by flow cytometry. FIG. 8B. Mouse Thy1 gene targeting scheme. FIG. 8C. Single amino acid mutations were generated for the Bcl-2 BH1 (G145A) or BH4 (Y28A) domains. Compiled gene editing frequencies for cells transfected with the Left, Right, or Both Thy1 sgRNAs. The percent of mThy1^+hThy1^− (bottom portion of each set of bars in each graph), mThy1^+hThy1^+ (top portion of left and center sets of bars in each graph and center portion of right set of bars in each graph), and mThy1^−hThy1^− (top portion of right set of bars in each graph) cells among the various samples is indicated. FIG. 8D. Mouse CD147 gene targeting scheme. FIG. 8E. Flow cytometry staining for mCD147 and hCD147 for retrovirally-derived PGP1 hiPSC transfected with “Cas9 sgRNA” or “Cas9 Bcl-2 sgRNA”. Samples are gated on live single cells; the percent of cells in each quadrant is indicated. FIG. 8F. Compiled gene editing frequencies for cells transfected with the Left, Right, or both CD147 sgRNAs. The percent of mCD147^+hCD147^− (bottom portion of each set of bars in each graph), mCD147^+hCD147^+ (top portion of left and center sets of bars in each graph and center portion of right set of bars in each graph), and mCD147^−hCD147^− (top portion of right set of bars in each graph) cells among the three hiPSC lines is indicated.
PCR reactions were done using polymerase sold under the trademark KAPA HIFI™ HotStart polymerase; primers and double-stranded DNA fragments sold under the trademark GBLOCKS® are from IDT. Plasmids were constructed using isothermal assembly, transformed into Stbl3 competent E. coli (Invitrogen), grown at 30° C., and verified by Sanger sequencing (Genewiz). Anti-apoptotic genes were obtained from previously published plasmids: Bcl-2 (Addgene plasmid #8793) and Bcl-xL (#8790) (Cheng et al., 2001); Bcl2A1 (#36973) (Pratt et al., 2012); and Mcl-1 (#21605) (Maurer et al., 2006). The dominant negative p53 sequence from Addgene plasmid #9058 (Hahn et al., 2002) was synthesized as a gBlock. These genes were cloned into the EF1α promoter-Cas9 nuclease plasmid after an IRES.
The U6 promoter-sgRNA (for each sgRNA sequence) was cloned into the EF1α promoter-Cas9 nuclease or EF1α promoter-Cas9 nuclease-IRES-Bcl-2 expression plasmids to form the “Cas9 only sgRNA” or “Cas9 Bcl-2 sgRNA” plasmids used in Examples 6 and 7. […]

Bcl-2: B cell lymphoma 2 protein, anti-apoptotic, overexpressed from lentivirus or Cas9 plasmid
gene targeting at the CD147 and Thy1 loci (Bcl-2 on the Cas9 plasmid, PGP4 hiPSC line): markedly improved gene targeting | mCD147 gene targeting frequencies (Bcl-2 on the Cas9 plasmid, retroviral and non-integrating PGP1 hiPSC lines): substantially and reproducibly increased gene targeting frequencies | mThy1 gene targeting, wild type vs mutant Bcl-2 (Cas9 Bcl-2 sgRNA plasmids, transient transfection): greatest enhancement | mThy1 gene targeting frequencies compared to Cas9 only controls (transient transfection of Cas9-IRES-anti-apoptotic factor plasmid): the only anti-apoptotic factor that increased gene targeting frequencies
